Measured values: ChEMBL document CHEMBL3046377, “Bioactive ellagitannins from Cunonia macrophylla, an endemic Cunoniaceae from New Caledonia” (Phytochemistry, 2005)

How the values were obtained:
[1] = tested on: Staphylococcus aureus; test: Antimicrobial activity against Staphylococcus aureus at 100 ug after 24 hr by disk diffusion method; format: functional; conditions: read-out: DIZ
[2] = tested on: Corynebacterium accolens; test: Antimicrobial activity against Corynebacterium accolens at 100 ug after 24 hr by disk diffusion method; format: functional; conditions: read-out: DIZ
[3] = tested on: Pectobacterium carotovorum; test: Antimicrobial activity against Pectobacterium carotovorum at 100 ug after 24 hr by disk diffusion method; format: functional; conditions: read-out: DIZ
[4] = tested on: Candida albicans; test: Antimicrobial activity against Candida albicans at 100 ug after 24 hr by disk diffusion method; format: functional; conditions: read-out: DIZ
[5] = Inhibition of xanthine oxidase assessed as conversion of xanthine to uric acid incubated for 3 min
[6] = tested on: Staphylococcus aureus; test: Antimicrobial activity against Staphylococcus aureus at 10 ug after 24 hr by disk diffusion method; format: functional, organism-based
[7] = tested on: Corynebacterium accolens; test: Antimicrobial activity against Corynebacterium accolens at 10 ug after 24 hr by disk diffusion method; format: functional, organism-based
[8] = tested on: Pectobacterium carotovorum; test: Antimicrobial activity against Pectobacterium carotovorum at 10 ug after 24 hr by disk diffusion method; format: functional, organism-based
[9] = tested on: Candida albicans; test: Antimicrobial activity against Candida albicans at 20 ug after 24 hr by disk diffusion method; format: functional, organism-based

Row | Compound | zone of inhibition at 100 µg/disc [1] | zone of inhibition at 100 µg/disc [2] | zone of inhibition at 100 µg/disc [3] | zone of inhibition at 100 µg/disc [4] | IC50 [5] | inhibition zone (IZ) [6] | inhibition zone (IZ) [7] | inhibition zone (IZ) [8] | inhibition zone (IZ) [9]
1 | O=C(O)C[C@@H]1C(=O)O[C@H]2[C@@H]3OC(=O)c4cc(O)c(O)c(O)c4-c4c(cc(O)c(O)c4O)C(=O)OC[C@H]2O[C@@H](OC(=O)c2cc(O)c(O)c(O)c2)[C@@H]3OC(=O)c2cc(O)c(O)c3c2[C@H]1[C@H](O)C(=O)O3 [CHEBULAGIC ACID] | 11 mm | 10 mm | 19 mm | 12 mm | 48 µM | – | – | – | –
2 | O=C(O[C@@H]1O[C@@H]2COC(=O)c3cc(O)c(O)c(O)c3-c3c(cc(O)c(O)c3O)C(=O)O[C@H]([C@H]1O)[C@@H]2O)c1cc(O)c(O)c(O)c1 [CORILAGIN] | 12 mm | 12 mm | 20 mm | 12 mm | > 100 µM | – | – | – | –
3 | O=c1oc2c(O)c(O[C@@H]3OC[C@@H](O)[C@H](O)[C@H]3O)cc3c(=O)oc4c(O)c(O)cc1c4c23 [ELLAGIC ACID 4-O-XYLOPYRANOSIDE] | 0 mm | 0 mm | 12 mm | 0 mm | 4.7 µM | – | – | – | –
4 | O=c1oc2c(O)c(O)cc3c(=O)oc4c(O)c(O)cc1c4c23 [ELLAGIC ACID] | 0 mm | 12 mm | 15 mm | 10 mm | 9.3 µM | – | – | – | –
5 | O=C(O)c1cc(O)c(O)c(O)c1 [GALLIC ACID] | 7 mm | 7 mm | 13 mm | 7 mm | 41.7 µM | – | – | – | –
6 | O=C(Oc1c(O)cc2c(c1O)-c1c(cc(O)c(O)c1O)C(=O)OC[C@H]1O[C@@H](OC(=O)c3cc(O)c(O)c(O)c3)[C@H](O)[C@@H](OC2=O)[C@@H]1O)c1cc(O)c(O)c(O)c1 [MALLOREPANIN] | 10 mm | 10 mm | 15 mm | 10 mm | > 100 µM | – | – | – | –
7 | O=C(O[C@@H]1O[C@@H]2COC(=O)c3cc(O)c(O)c(O)c3-c3c(cc(Oc4c(C(=O)O)cc(O)c(O)c4O)c(O)c3O)C(=O)O[C@H]([C@H]1O)[C@@H]2O)c1cc(O)c(O)c(O)c1 [MALLOTINIC ACID] | 9 mm | 9 mm | 13 mm | 9 mm | > 100 µM | – | – | – | –
8 | O=c1c(O)c(-c2ccc(O)c(O)c2)oc2cc(O)cc(O)c12 [QUERCETIN] | – | – | – | – | 10 µM | – | – | – | –
9 | GENTAMICIN SULFATE | – | – | – | – | – | 14 mm | 28 mm | 21 mm | –
10 | NYSTATIN | – | – | – | – | – | – | – | – | 11 mm
